≈ marks a conversion by molar mass, not a printed value.

One series relates to Anas platyrhynchos. The settings on record: short-term; oral; feed; mortality.
The test system of another series is Apis mellifera. As to conditions: acute; duration: 48 hours; dermal; mortality.
Another series has as its system Bibionidae. As to conditions: chronic/long-term; development.
For a further series, the system named is Canidae. The settings on record: chronic; duration: 6 months; oral; Dog Other; clinical signs.
In a further series the test system is Daphnia magna. As to conditions: chronic/long-term; duration: 21 days; reproduction.
The next series has as its system Rattus norvegicus. As to conditions: reproduction developmental.
Another series deals with Tagia sp. As to conditions: acute; mortality.
In another series the test system is Aphidius rhopalosiphi. The experiment in a line: LR50; higher = less toxic. As to conditions: acute; duration: 48 hours; mortality.

For orientation: NOAEL means the highest dose or exposure tested at which no adverse effect was seen. Consider `COP(=S)(OC)Oc1c(Cl)cc(C)cc1Cl` [Tolclofos-methyl], for which the LC50 with Anas platyrhynchos was above 1620 mg/kg-day; in the series with Oncorhynchus mykiss (acute, duration: 96 hours, mortality), 0.69 µg/mL (≈ 2.29 µM); in the series with Tagia sp., above 1000 mg/kg. In addition, the LD50 was above 100 µg/piece in the series on Apis mellifera; above 5000 mg/kg with Colinus virginianus (acute, oral, mortality); 3500 mg/kg in the series on Mus musculus (acute, oral, mortality). Also, the NOEC is 0.25 mg/L in the series on Bibionidae; 0.026 mg/L in the series on Daphnia magna; 0.012 mg/L with Oncorhynchus mykiss (chronic/long-term, duration: 97 days, growth); 70.6 mg/kg-day in the series on Rattus norvegicus. For the same compound, the NOAEL was determined as 21 mg/kg-day in the series on Canidae and 6.4 mg/kg-day in the series on Mus musculus (chronic, duration: 2 years, clinical signs). In the series on Colinus virginianus (reproduction developmental), this compound came in with an NOEL of 49 mg/kg-day. The compound further registered an LR50 in the series with Aphidius rhopalosiphi of 43.7 g/ha.

The values above are taken from EPA's ToxValDB 9.5 (doi:10.2903/j.efsa.2005.32ar).
